Laboratory results taken from patent US20040229772A1, “Peptides responsive to antibodies against consensus peptide of the CS4-CFA/I family proteins” (priority 1996, published 2004).

Experiments:
Format in all cases: binding
[1] = tested on: Antibody to CS1; experiment: ELISA of 8-mer peptides (pins) with rabbit serum; conditions: a listed pin number means recognized
Experimental: (§1) Blocks of pins for cleavable syntheses were obtained from Chiron Mimotopes U.S. Peptide synthesis was carried out according to the manufacturer's instructions using Opfp-derivatized amino acids. Peptides of length 8 with 7 overlap were manufactured in order to locate all linear epitopes in the sequence with a highest redundancy. […] Peptides were cleaved from the pins using 0.1 M phosphate buffer, pH 8.0, containing 40% acetonitrile. Two peptides were made and sacrificed for amino acid analysis as proof of peptide purity. A dinitrophenol (DNP) pin was included so that the efficiency of the cleavage could be monitored spectrophotometrically.
(§2) For blocking, a composition containing 5% nonfat dry milk in PBS+0.2% sodium azide was used. Stock streptavidin (Calbiochem Corp., La Jolla, Calif.) at 1 mg/ml in water was kept frozen in aliquots for up to several months. On the day of use, the stock streptavidin was diluted in phosphate buffered saline (PBS) to provide a concentration of 5 μg/ml streptavidin. Goat F(ab′)2 anti-mouse, anti-rabbit and anti-human sera were labeled with alkaline phosphatase (Biosource, International, Camarillo, Calif.).
(§3) Streptavidin was plated at 5 μg/ml, 50 μl per well, and incubated over night at 4° C. Plates were then washed by hand (Nunc Immunowash 12 hand plate washer. Fisher Scientific, Pittsburgh, Pa.) three times with PBS/0.1% TWEEN 20™. Peptides were then diluted to 10 μg/ml in PBS and plated at 50-μl/well. After incubation for one hour at room temperature followed by washing, the peptides were incubated with sera diluted in blocker at appropriate concentrations (5% nonfat dry milk) for 2 hours at room temperature. After washing the wells, 50 μl of phosphatase-labeled anti-serum IgG diluted 1:1000 in blocker was added to each well and was allowed to incubate at room temperature for 1 hour. The plates were washed. The 100 μl of PNDP (p-nitrophenylphosphate) substrate, prepared according to the manufacturer's instructions, was added to each well. Results were read at 5, 15 and 60 minutes using a microtiter plate reader (UVmax™, Moelcular Devices, Sunnyvale, Calif.).
(§4) Partially to fully purified colonization factor (40% to 100% pure) was run on SDS-PAGE gel (5-15 μg/lane of 10 comb gel (precast 10 comb, 1 mm thickness, Tris-tricene gel from Novex, San Diego, Calif.), for primary immunization run 9 lanes for each rabbit (45-135 μg CF protein with ½ the amount used in the primary immunization used as a booster). The gel was stained with 0.5% COOMASSIE BLUE™ (BioRad, Richmond, Calif.) in water for 1 hour, then destained with multiple changes of water for 60-90 minutes. The colonization factor bands were excised with a scalpel and the excess gel trimmed. The bands were stored at −20° C. until use.
(§5) After removal from freezer, the gel slices were transferred to a glass tissue homogenizer using a teflon pestle with grooves at the tip. The slices were ground with 0.3 ml phosphate buffered saline (PBS). The drill was run to homogenize the gel for 30 to 45 seconds. (In the instant case, a pestle with a shaft of steel was used which allowed placement of the pestle into the chuck of the hand-held drill.)
(§6) The homogenate was transferred to 16 mm×150 mm test tubes with disposable plastic transfer pipet. The pestle and homogenizer vessel was rinsed repeatedly with PBS and the contents transferred to the 16×150 test tube until a volume of 1.2 ml was obtained.
(§7) The sample obtained above was placed in a vortex mixer and vortexed on high. Freund's adjuvant 1.2 ml was added. (Complete Freund's was used for the primary immunization, while incomplete Freund's was used for the boost.) The composition was vortexed until a thick emulsion of almost a butter consistency was obtained (12-20 minutes).
(§8) A preimmune serum was obtained on all animals, which were then immunized with the 1 ml of the emulsion subcutaneously at 4-6 spots on the shoulders and rump. The animals were boosted three weeks later, then bleed 10 days after the booster shots. […]

[2] = tested on: Antibody to CS2; experiment: ELISA of 8-mer peptides (pins) with rabbit serum; conditions: a listed pin number means recognized
Experimental: as §1, §2, §3, §4, §5, §6, §7, §8

[3] = tested on: Antibody to CS4; experiment: ELISA of 8-mer peptides (pins) with rabbit serum; conditions: a listed pin number means recognized
Experimental: as §1, §2, §3, §4, §5, §6, §7, §8

[4] = tested on: antibodies raised to the consensus peptide; experiment: ELISA of 8-mer peptides with rabbit antibodies; conditions: for reactivity of 8-mer peptides with antibodies from the rabbits: rabbit antibodies raised to consensus peptide SEQ ID NO:1, biotin-SGSG-peptide on streptavidin; for interaction of peptides with the antibodies raised to the consensus peptide: rabbit antibodies raised to consensus peptide SEQ ID NO:1
Experimental: as §1, §2, §3
Antibodies from the rabbits were then tested against the specific 8-mer peptides obtained from SEQ ID NO:1 in the manner disclosed above to determine the binding sites of the antibodies in the sera with the consensus peptide.

[5] = tested on: Antibody to 0166 lower; experiment: ELISA of 8-mer peptides (pins) with rabbit serum
Experimental: as §1, §2, §3, §4, §5, §6, §7, §8

[6] = tested on: Antibody to CS17; experiment: ELISA of 8-mer peptides (pins) with rabbit serum; conditions: a listed pin number means recognized
Experimental: as §1, §2, §3, §4, §5, §6, §7, §8

[7] = tested on: Antibody to 0166 upper; experiment: ELISA of 8-mer peptides (pins) with rabbit serum
Experimental: as §1, §2, §3, §4, §5, §6, §7, §8

[8] = tested on: Antibody to CFA/I; experiment: ELISA of 8-mer peptides (pins) with rabbit serum
Experimental: as §1, §2, §3, §4, §5, §6, §7, §8

[9] = rabbit 1082, a listed pin number means recognized
[10] = rabbit 1081, a listed pin number means recognized
[11] = rabbit 1083, a listed pin number means recognized
[12] = rabbit 934, a listed pin number means recognized

Sequence	pins (8-aa peptide) recognized by serum ([1]; Antibody to CS1, rabbit 1089)	pins (8-aa peptide) recognized by serum ([1]; Antibody to CS1, rabbit 1090)	pins (8-aa peptide) recognized by serum ([3]; Antibody to CS4, rabbit 940)	reactivity of 8-mer peptides with antibodies from the rabbits [4]	further results
ADGSALPS (listed as Escherichia coli) [compound 20]	20	20	–	–	–
ALPSAVAL (listed as Escherichia coli) [compound 24]	–	24	24	most reactive	pins (8-aa peptide) recognized by serum ([2]; Antibody to CS2, rabbit 1077): 24
ASVDPTID (listed as Escherichia coli) [compound 9]	–	9	–	most reactive	pins (8-aa peptide) recognized by serum [5, 9]: 9; pins (8-aa peptide) recognized by serum ([2]; Antibody to CS2, rabbit 1076): 9; pins (8-aa peptide) recognized by serum ([2]; Antibody to CS2, rabbit 1077): 9; pins (8-aa peptide) recognized by serum ([6]; Antibody to CS17, rabbit 1084): 9; pins (8-aa peptide) recognized by serum ([3]; Antibody to CS4, rabbit 938): 9; pins (8-aa peptide) recognized by serum [7, 10]: 9; interaction of peptides with the antibodies raised to the consensus peptide [4]: more reliably interactive
AVALTYSP (listed as Escherichia coli) [compound 28]	28	28	–	most reactive	interaction of peptides with the antibodies raised to the consensus peptide [4]: more reliably interactive
DGSALPSA (listed as Escherichia coli) [compound 21]	21	21	–	–	–
DLLQADGS (listed as Escherichia coli) [compound 16]	–	–	–	–	pins (8-aa peptide) recognized by serum [7, 10]: 16
DPTIDLLQ (listed as Escherichia coli) [compound 12]	12	12	12	most reactive	pins (8-aa peptide) recognized by serum [5, 9]: 12; pins (8-aa peptide) recognized by serum [5, 11]: 12; pins (8-aa peptide) recognized by serum ([2]; Antibody to CS2, rabbit 1076): 12; pins (8-aa peptide) recognized by serum ([3]; Antibody to CS4, rabbit 938): 12; pins (8-aa peptide) recognized by serum [7, 12]: 12; pins (8-aa peptide) recognized by serum [7, 10]: 12; interaction of peptides with the antibodies raised to the consensus peptide [4]: more reliably interactive
EKNITVTA (listed as Escherichia coli) [compound 2]	–	–	2	most reactive	pins (8-aa peptide) recognized by serum [5, 11]: 2; pins (8-aa peptide) recognized by serum ([6]; Antibody to CS17, rabbit 1080): 2
GSALPSAV (listed as Escherichia coli) [compound 22]	–	22	22	–	–
IDLLQADG (listed as Escherichia coli) [compound 15]	–	–	–	–	pins (8-aa peptide) recognized by serum [7, 10]: 15
ITVTASVD (listed as Escherichia coli) [compound 5]	–	–	–	most reactive	–
KNITVTAS (listed as Escherichia coli) [compound 3]	3	–	3	most reactive	pins (8-aa peptide) recognized by serum [5, 11]: 3; pins (8-aa peptide) recognized by serum ([6]; Antibody to CS17, rabbit 1080): 3
LLQADGSA (listed as Escherichia coli) [compound 17]	–	–	–	–	pins (8-aa peptide) recognized by serum [7, 10]: 17
LPSAVALT (listed as Escherichia coli) [compound 25]	–	–	25	most reactive	–
LQADGSAL (listed as Escherichia coli) [compound 18]	18	18	–	–	–
NITVTASV (listed as Escherichia coli) [compound 4]	4	4	–	most reactive	pins (8-aa peptide) recognized by serum ([6]; Antibody to CS17, rabbit 1080): 4
PSAVALTY (listed as Escherichia coli) [compound 26]	–	26	–	most reactive	pins (8-aa peptide) recognized by serum ([3]; Antibody to CS4, rabbit 938): 26; interaction of peptides with the antibodies raised to the consensus peptide [4]: more reliably interactive
QADGSALP (listed as Escherichia coli) [compound 19]	19	19	–	–	–
SALPSAVA (listed as Escherichia coli) [compound 23]	–	23	–	most reactive	–
SAVALTYS (listed as Escherichia coli) [compound 27]	–	27	–	most reactive	interaction of peptides with the antibodies raised to the consensus peptide [4]: more reliably interactive
SVDPTIDL (listed as Escherichia coli) [compound 10]	10	10	10	most reactive	pins (8-aa peptide) recognized by serum ([2]; Antibody to CS2, rabbit 1076): 10; pins (8-aa peptide) recognized by serum ([2]; Antibody to CS2, rabbit 1077): 10; pins (8-aa peptide) recognized by serum ([3]; Antibody to CS4, rabbit 938): 10; pins (8-aa peptide) recognized by serum [7, 10]: 10; interaction of peptides with the antibodies raised to the consensus peptide [4]: more reliably interactive
TASVDPTI (listed as Escherichia coli) [compound 8]	–	8	–	most reactive	pins (8-aa peptide) recognized by serum ([2]; Antibody to CS2, rabbit 1076): 8; pins (8-aa peptide) recognized by serum ([2]; Antibody to CS2, rabbit 1077): 8; pins (8-aa peptide) recognized by serum ([6]; Antibody to CS17, rabbit 1084): 8; pins (8-aa peptide) recognized by serum ([3]; Antibody to CS4, rabbit 938): 8
TIDLLQAD (listed as Escherichia coli) [compound 14]	–	–	14	most reactive	pins (8-aa peptide) recognized by serum [5, 9]: 14; pins (8-aa peptide) recognized by serum [7, 12]: 14; pins (8-aa peptide) recognized by serum ([8]; rabbit 1078, a listed pin number means recognized): 14; pins (8-aa peptide) recognized by serum ([8]; rabbit 1079, a listed pin number means recognized): 14
TVTASVDP (listed as Escherichia coli) [compound 6]	–	6	–	–	pins (8-aa peptide) recognized by serum ([6]; Antibody to CS17, rabbit 1084): 6
VALTYSPA (listed as Escherichia coli) [compound 29]	29	29	–	most reactive	–
VEKNITVT (listed as Escherichia coli) [compound 1]	–	–	1	–	pins (8-aa peptide) recognized by serum ([6]; Antibody to CS17, rabbit 1084): 1
VTASVDPT (listed as Escherichia coli) [compound 7]	–	7	–	–	pins (8-aa peptide) recognized by serum ([2]; Antibody to CS2, rabbit 1076): 7; pins (8-aa peptide) recognized by serum ([2]; Antibody to CS2, rabbit 1077): 7; pins (8-aa peptide) recognized by serum ([6]; Antibody to CS17, rabbit 1084): 7
